Experimental data taken from US20210206817A1, “Metabolically Stable Apelin Analogs in the Treatment of Disease Mediated by the Apelin Receptor” (priority 2014, published 2021).
“And” between values parts separate entries of the source, which are not always exact repeats. Equal values may be shown once. Read-outs that look alike come from different tables or passages of the source.

What was measured:
rat apelin receptor-EGFP [1] = biological target: T1, rat apelin receptor-EGFP (Rattus norvegicus, UniProt Q9JHG3); test: [125I]pE13F radioligand binding on CHO membrane preparations
T1 construct: expressed in transfected cells
T1 sequence (Q9JHG3 1-377): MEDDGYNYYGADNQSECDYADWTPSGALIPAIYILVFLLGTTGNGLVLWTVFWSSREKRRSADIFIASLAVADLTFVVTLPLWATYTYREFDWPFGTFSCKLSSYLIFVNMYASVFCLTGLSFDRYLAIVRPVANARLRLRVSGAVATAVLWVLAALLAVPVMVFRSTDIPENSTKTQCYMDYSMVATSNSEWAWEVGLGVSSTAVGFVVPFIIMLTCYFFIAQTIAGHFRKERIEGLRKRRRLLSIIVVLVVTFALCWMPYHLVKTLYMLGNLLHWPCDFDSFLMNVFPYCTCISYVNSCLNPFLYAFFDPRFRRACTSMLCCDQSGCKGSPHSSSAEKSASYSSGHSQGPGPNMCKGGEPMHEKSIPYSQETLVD
Method: Crude membrane preparation from CHO stably expressing the wild-type rat apelin receptor-EGFP, were prepared as previously described (39). […] The reaction was stopped by adding ice-cold binding buffer and filtered through glass microfiber filters (Whatman GF/C filters). Radioactivity was counted in Wizard 1470 Wallac gamma counter (Perkin Elmer, Turku, Finland).

rat apelin receptor-EGFP [2] = biological target: T1, rat apelin receptor-EGFP; test: Inhibition of forskolin-induced cAMP production (HTRF); type: cell-based
Method: cAMP was quantified using the cAMP dynamic 2 assay kit (Cisbio Bioassays, Codolet, France) based on homogeneous time-resolved fluorescence (HTRF) technology. The stimulation was done in the stimulation buffer (HBSS, 5 mM Hepes, 0.1% BSA stabilizer, 1 mM IBMX, pH 7.4). Briefly, 2,000/well CHO cells stably expressing the rat apelin receptor-EGFP were added into 384-well plate and stimulated with 10^−6 M forskolin (FSK) and increasing concentrations (10^−14 to 10^−4 M) of apelins or its analogs for 30 min at room temperature. Cells were then lyzed, and cAMP levels were determined following manufacturer instructions.

rat apelin receptor-EGFP [3] = biological target: T1, rat apelin receptor-EGFP; test: Apelin receptor-EGFP internalization, confocal microscopy; type: cell-based; details: Table 2; read-out: Internalization EC50
Method: The internalization assay was performed as described previously with CHO cells stably expressing the rat apelin receptor-EGFP (43). […] Cells were then mounted in Aquapolymount (Polysciences, Warrington, Pa., USA) for confocal microscopic analysis (Sec (42) for details).

rat apelin receptor-EGFP [4] = biological target: T1, rat apelin receptor-EGFP; test: ERK1/2 phosphorylation (Alphascreen); type: cell-based; details: Table 7; read-out: ERK1/2 phosphorylation EC50
Description: ERK1/2 phosphorylation was then monitored by Alphascreen technology.

[5] = Stability in mouse plasma at 37° C.; details: mouse, plasma
Method: For each compound, the stock solution (100 μM in water) was diluted in plasma to a final incubation concentration of 5 μM. The incubation at 37° C. was stopped respectively at to and 4 h by adding one volume of ice cold acetonitrile containing 0.1% trifluoroacetic acid. The sample was vortexed for 1 min and then centrifuged at 4° C. before LC-MS injection of the supernatant. Analyses were performed on a Kinetex RP-C18 column (2.6 μm, 100 Å, 50×4.6 mm) using a linear gradient (solvent B in solvent A, solvent A: water/0.05% TFA; solvent B: acetonitrile; flow rate of 2 mL·min^−1: detection at 358 nm). The percentage of remaining test compound relative to t0 was measured by monitoring the peak area of the chromatogram.

[6] = test system: rat aortic rings precontracted by noradrenaline (NA); test: Isometric tension of aortic rings precontracted by noradrenaline
Method: The experiments were performed in rat aortic rings as previously described (39). […] The aortas were cleaned of excess connective tissue and fat and cut into rings of approximately 3-4 mm in length. Special care was taken to avoid damaging the luminal surface of the endothelium. […] One end of the aortic ring was connected to a tissue holder and the other to an isometric force transducer (EMKA Technologies, Paris, France). […] During equilibration period, the rings were washed every 30 min. Then, a first relaxation to acetylcholine (Ach, 10^−4 mol/L) was implemented to check the integrity or the absence of the endothelium in rings precontracted with NA (3×10^−8 mol/L). After rinsing with PSS to baseline tension, rings were equilibrated for 90 min. […] Each concentration of the drug was added at the maximal effect of the precedent concentration. The concentration-response curves were continuously recorded on a PC by means of IOX v 2.4 (EMKA Technologies, Paris) for further analysis (Datanalyst v2.1, EMKA Technologies, Paris).

[7] = test system: rat glomerular arterioles precontracted by Angiotensin II (AngII); test: Diameter of glomerular arterioles precontracted by angiotensin II; details: L-NAME, NO synthase inhibitor
Method: The left kidney of male rats was prepared for microdissection of arterioles as previously described (44). Glomerular arterioles were isolated under stereomicroscopic observation. The afferent and muscular efferent arterioles were isolated with the glomerulus and identify according their morphology and localization in the inner renal cortex as previously described by Helou et al. […] For these experiments afferent and muscular efferent arterioles were microdissected attached to the gomeruli. […] Arteriolar diameters were measured with Adobe Photoshop CS. Diameters were measured on a distance equal to about 100 μm upstream of the glomerulus and triplicate were performed for each arteriole. Calibration was made using a stage micrometer. The average diameter for each experimental condition was used for statistical analysis.

[8] = test system: anaesthesized normotensive Wistar rats; test: Arterial blood pressure after i.v. injection; type: in vivo, rat
Method: The resulting solution was administered to the rats via a catheter inserted into the right femoral vein, and was immediately followed by 0.2 ml Krebs buffer alone to flush the venous catheter. An additional catheter was inserted into the right femoral artery, as previously described (47), for the monitoring of mean arterial blood pressure (MBP) as previously described (48). The arterial catheter was connected to a COBE CDX III pressure transducer (Phymep, Paris, France) linked to the Maclab system (Phymep, Paris, France). HR measurement was triggered by the blood pressure signal. BP was continuously recorded throughout the experiment. […] Mean AUC for each group were then calculated. Unpaired Student's t test was used to determine whether BP observed in response to substances administered […].) has statistically significant difference.

[9] = test system: water-deprived or euhydrated mice; test: Plasma AVP after i.c.v. injection (RIA); type: in vivo, mouse; details: 1 μg i.c.v.
Method: Animals were killed 1 min after the injection, and trunk blood (0.5-1 ml) was collected in chilled tubes containing 50 μl of 0.3 M EDTA pH 7.4. […] RIA kit (Peninsula Laboratories International Inc, San Carlo, USA).

[10] = test system: isolated perfused rat heart; test: Isolated perfused rat heart, cardiac contractility
Method: Animals were anesthetized with pentobarbital sodium (50 mg/kg intraperitoneally). Heparin (200 IU/kg) was administrated into the femoral vein. Hearts were excised quickly and arrested in ice-cold Krebs-Henseleit solution containing (mM): […] […] Temperature was continuously monitored by a thermoprobe inserted into the right atrium. Hearts beat spontaneously under the sinus rhythm. […] The maximal rate of rise of left ventricular pressure (dP/dtmax) and heart rate were derived from left ventricular pressure. After 20-minutes equilibration period, the hearts were treated by drugs added to the perfusate with an infusion pump (Harvard Apparatus Pump 11) at rate of 100 μL/min for 30 minutes.

[11] = test system: water-deprived or euhydrated mice; details: i.c.v., Iturrioz 2010; cited from earlier work
[12] = Half-life in the blood circulation

**Q.** Which Ki (rat apelin receptor-EGFP [1]; Table 7, additional experiments vs Table 2, read-out: Binding affinity Ki) does the source give for `CSCC[C@H](NC(=O)[C@@H]1CCCN1C(=O)CNC(=O)[C@H](CCCCN)NC(=O)[C@H](Cc1c[nH]cn1)NC(=O)[C@H](CO)NC(=O)[C@H](CC(C)C)NC(=O)[C@H](CCCNC(=N)N)NC(=O)[C@@H]1CCCN1C(=O)[C@H](CCCNC(=N)N)NC(=O)[C@H](CCC(N)=O)NC(=O)[C@H](CCCNC(=N)N)NC(=O)[C@H](CCCNC(=N)N)NC(=O)[C@H](Cc1ccccc1)NC(=O)[C@@H](N)CCCCN)C(=O)N1CCC[C@H]1C(=O)N[C@@H](Cc1ccccc1)C(=O)O` [K17F, reference compound] here?
**A.** The Ki was 0.06 ± 0.01 nM.

**Q.** And the Ki (rat apelin receptor-EGFP [1]; [125I]pE13F binding I (nM), Table 2)?
**A.** The Ki was 0.26 ± 0.12 nM.

**Q.** What about the Ki (rat apelin receptor-EGFP [1]; competition with [125I]pE13F, CHO membranes, read-out: Ki for the apelin receptor (affinity)) of the same compound?
**A.** The Ki was 0.3 ± 0.1 nM.

**Q.** And the IC50 (rat apelin receptor-EGFP [2]; 10^−6 M forskolin, read-out: IC50 inhibition of forskolin-induced cAMP production)?
**A.** Its IC50 is 0.3 ± 0.2 nM.

**Q.** What about the IC50 (rat apelin receptor-EGFP [2]; Table 1, read-out: cAMP production IC50) of the same compound?
**A.** The IC50 was 0.3 ± 0.1 nM.

**Q.** And the IC50 (rat apelin receptor-EGFP [2]; Table 3, read-out: IC50 cAMP inhibition)?
**A.** The IC50 was 0.09 ± 0.01 nM.

**Q.** What about the EC50 (rat apelin receptor-EGFP [3]) of the same compound?
**A.** Its EC50 is 0.26 ± 0.09 nM.

**Q.** What about the EC50 (rat apelin receptor-EGFP [4]) of the same compound?
**A.** The EC50 was 4.08 ± 1.17 nM.

**Q.** And the half-life at 5 μM [5]?
**A.** The half-life at 5 μM was 4.6 min.

**Q.** What about the “vasorelaxing effect at maximal concentration” value ([6]; 100 μM) of the same compound?
**A.** Its value is 93±3%.

**Q.** And the maximal relaxant effect ([6]; precontraction 3×10^−6 M NA)?
**A.** Its maximal relaxant effect is 87±8%.

**Q.** What about the “potency (pD2) of relaxation” value ([6]; precontraction 3×10^−6 M NA) of the same compound?
**A.** The value was 8.30±0.44.

**Q.** What about the “vasorelaxant effect in the presence of L-NAME” value [7] of the same compound?
**A.** Its value is “blocked”.

**Q.** And the “(maximal) decrease in mean arterial blood pressure” value ([8]; 15 nmol/rat i.v.)?
**A.** The value was 7.8 mmHg and 5.4±1 mmHg.

**Q.** And the “time of maximal hypotensive response after injection” value ([8]; 15 nmol/rat i.v.)?
**A.** Its value is 1.2 min.

**Q.** What about the “AUC of BP response” value ([8]; 100 nmol i.v., 15 minutes following injection) of the same compound?
**A.** Its value is −13712±5271 mmHg·s.

**Q.** What about the “decrease in MABP” value ([8]; 100 nmol/rat i.v.) of the same compound?
**A.** The value was 30.5 mmHg.

**Q.** What about the “plateau value after maximal decrease” value ([8]; 100 nmol/rat i.v.) of the same compound?
**A.** Its value is −12 mmHg.

**Q.** What about the “time of return to plateau value” ([8]; 100 nmol/rat i.v.) of the same compound?
**A.** The value was “around 22 min”.

**Q.** What about the “Maximal decrease in BP (mmHg)” value ([8]; Table 5, 15 nmol i.v.) of the same compound?
**A.** The value was −7.8 mmHg.

**Q.** What about the “Time For maximal BP decrease” value ([8]; Table 5, 15 nmol i.v.) of the same compound?
**A.** The value was 1.2 min.

**Q.** And the “Time to return to a plateau value” ([8]; Table 5, 15 nmol i.v.)?
**A.** The value was 4.2 min.

**Q.** What about the “plateau value reached (in brackets)” value ([8]; Table 5, 15 nmol i.v.) of the same compound?
**A.** The value was “baseline”.

**Q.** What about the “ED50 decrease of MABP” value ([8]; i.v. 5-100 nmol/rat) of the same compound?
**A.** The value was 30 nmol.

**Q.** What about the “plasma AVP levels” value ([9]; water-deprived mice 24 h, saline 425±46 pg/ml) of the same compound?
**A.** The value was 190 ± 27 pg/mL.

**Q.** And the “maximal decrease in AVP release” value ([9]; water-deprived mice)?
**A.** The value was −94%.

**Q.** And the chronotropic effect [10]?
**A.** The chronotropic effect was “No chronotropic effect”.

**Q.** And the “effect on cardiac contractility (developed pressure)” value ([10]; K17F 0.01 to 300 nM, P92 200 and 400 nM)?
**A.** The value was “dose-dependently increased developed pressure”.

**Q.** What about the “ED50 decrease in plasma AVP” value [11] of the same compound?
**A.** Its value is 56 pmol.

**Q.** And the half-life [12]?
**A.** The half-life was 0.667 min.
